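Where inhibition never reached the appropriate level, the endpoint shown equals the highest concentration tested. Otherwise, values were interpolated linearly from a five-concentration, 48-hour dose response in 96-well plates. GI50 is the concentration that inhibits growth by half. At the TGI there is no net growth.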
How the values were obtained:
Experiment in all cases: inhibition of tumour cell growth, NCI panel, 48 h
MCF7 breast = test system: MCF7 breast
A498 renal = test system: A498 renal
HCT-116 colon = test system: HCT-116 colon
OVCAR-8 ovarian = test system: OVCAR-8 ovarian
MALME-3M melanoma = test system: MALME-3M melanoma
K-562 leukemia = test system: K-562 leukemia
OVCAR-3 ovarian = test system: OVCAR-3 ovarian
OVCAR-5 ovarian = test system: OVCAR-5 ovarian
MDA-MB-435 = test system: MDA-MB-435
MOLT-4 leukemia = test system: MOLT-4 leukemia

SMILES	TGI (MCF7 breast) [µM]	TGI (A498 renal) [µM]	TGI (HCT-116 colon) [µM]	TGI (OVCAR-8 ovarian) [µM]	TGI (MALME-3M melanoma) [µM]	TGI (K-562 leukemia) [µM]	TGI (OVCAR-3 ovarian) [µM]	TGI (OVCAR-5 ovarian) [µM]	TGI (MDA-MB-435) [µM]	TGI (MOLT-4 leukemia) [µM]	GI50 (MCF7 breast) [µM]	GI50 (OVCAR-8 ovarian) [µM]	GI50 (OVCAR-5 ovarian) [µM]	GI50 (MDA-MB-435) [µM]
NC(N)=NC(N)=Nc1ccc(S(=O)(=O)O)cc1	> 100	> 100	> 100	> 100	> 100	> 100	> 100	> 100	> 100	–	–	–	–	–
CN1CN(c2ccccc2)C2(CCN(CC(C)(c3ccc(F)cc3)C3OCCCO3)CC2)C1=O (stereo unspecified)	30.2	–	28.7	38.5	30	38.6	24.5	25.7	24.5	33.2	–	–	–	–
Cn1c2ccccc2c2c3c(c4c5ccccc5n(C)c4c21)C(=O)NC3=O	> 100	> 44.2	> 100	> 100	> 100	> 100	–	> 100	> 100	> 100	–	–	–	–
Cc1cnc2sn(-c3ccc([N+](=O)[O-])cc3)c(=O)c2c1	> 100	–	> 100	> 100	> 100	> 100	> 100	> 100	> 100	> 100	–	–	–	–
CO/N=C(/C)c1cccc(Nc2nc3ccccc3c3[nH]c4ccccc4c23)c1	19.9	–	14	20.9	–	> 100	20.6	22.3	20.6	27.2	–	–	–	–
Cc1nc(CC#N)n[nH]1	> 100	–	> 100	> 100	–	> 100	> 100	> 100	> 100	> 100	–	–	–	–
C/C(=N\N=C(\N)SB(F)F)c1ccc2ccccc2c1	> 100	> 100	> 100	> 100	> 100	> 100	–	> 100	> 100	–	–	–	–	–
Nc1[nH]nc(Nc2ccc(Cl)cc2)c1P(=O)(c1ccccc1)c1ccccc1	> 100	> 100	–	46.4	47.9	> 100	41.5	45.6	42.8	> 100	–	–	–	–
c1ccc2c(c1)c1c(n2CCOCCN2CCCC2)CCCC1	31.3	–	32.5	57.6	31.3	31.5	> 100	35.3	33.8	34.3	–	–	–	–
CC1(C)OC2[C@@H](CO[C@@]3([C@@H](O)CCO)OC(C)(C)O[C@@H]23)O1 (stereo partly specified)	> 100	–	> 100	> 100	–	> 100	> 100	> 100	> 100	> 100	–	–	–	–
CCOC(=O)c1nnsc1N/N=C\c1ccc([N+](=O)[O-])cc1	> 100	–	> 100	> 100	> 100	> 100	> 100	> 100	> 100	> 100	–	–	–	–
CCOC(=O)c1[nH]c(Br)c(-c2ccc(OC)c(OC)c2)c1Br	17.2	0.194	13.7	36.8	–	12.7	–	63.3	0.00973	8.59	0.338	0.0511	20.3	0.00279
Cc1c2c3ccccc3nc-2n(C)c2ccccc12	5.98	–	> 100	15.1	5.98	5.28	5.69	8.27	12.4	2.01	–	–	–	–
O=S(=O)(O)c1cc(N=Nc2c(O)ccc3ccccc23)ccc1/C=C/c1ccc(N=Nc2c(O)ccc3ccccc23)cc1S(=O)(=O)O	–	–	> 100	> 100	> 100	> 100	> 100	> 100	> 100	–	–	–	–	–
C=C1C(=O)O[C@H]2C[C@@]3(COC(C)=O)C=COC=C(COC(=O)C(C)C)C3CC12 (stereo partly specified)	> 100	–	> 100	> 100	> 100	> 100	> 100	> 100	> 100	> 100	–	–	–	–
C=CCC1CC(n2cc(C)c(=O)[nH]c2=O)OC1CO[Si](C)(C)C(C)(C)C (stereo unspecified)	29.1	34.5	24.6	28.5	23.2	24.3	31	31.7	28.2	–	–	–	–	–
CC[C@@]1(O)C(=O)OCc2c1cc1n(c2=O)Cc2c-1nc1ccccc1c2/C=N\NC(=O)C1CCCN1 (stereo partly specified)	18.4	2.58	21.2	10.9	> 89.4	> 100	43.5	> 73.2	> 100	–	–	–	–	–
O=C(/C=C/c1ccc(-c2ccccc2)cc1)NCc1ccc(C(=O)NCc2ccccc2)cc1	> 100	> 100	> 100	> 100	> 100	–	> 100	> 100	> 100	–	–	–	–	–
CC(=N\N)/C(C)=N/N=C(C)/C(C)=N/N	> 100	> 100	> 100	> 100	> 100	–	> 100	> 100	> 100	–	–	–	–	–
O=C(O)Cc1ccc(Nc2nc3cc(C(F)(F)F)ccc3nc2C(=O)O)cc1	> 100	> 100	> 100	> 100	> 100	–	> 100	> 100	> 100	> 100	–	–	–	–
CS(=O)(=O)c1nc(-c2cc3c(c(S(C)(=O)=O)n2)CCCC3)cc2c1CCCCC2	–	–	> 100	> 100	–	–	> 100	> 100	> 100	–	–	–	–	–
O=C1c2ccccc2C(=O)c2cc(N=Nc3c(O)ccc4ccccc34)ccc21	–	> 100	> 100	> 100	> 100	> 100	> 100	> 100	> 100	> 100	–	–	–	–
C#C/C=C\CCCC/C=C\C#CC#CCCCC#CC#C[C@H](COS(=O)(=O)O)OS(=O)(=O)O	> 100	–	> 100	> 100	–	–	> 100	> 100	> 100	> 100	–	–	–	–

— PubChem BioAssay (NCI)
